Format in all cases: physicochemical
A short description of data set [1]: Thermal analysis (DSC and TGA). The protocol: Differential scanning calorimetry (DSC) was performed using a TA Instruments Model Q-100 module. Data were collected and analyzed using TA Instruments Thermal Advantage for Q Series™ software. A sample of about 1-10 mg was accurately weighed into an aluminum pan with lid. The sample was evaluated using a linear heating ramp of 10° C./min from 5° C. to, typically, 265° C. The DSC cell was purged with dry nitrogen during use. Representative DSC traces for samples of the crystalline hydrochloride salt and of the crystalline hydrate of a hydrochloride salt of compound I are shown in FIGS. 2 and 5, respectively.
Thermogravimetric analysis (TGA) was performed using a TA Instruments Model Q-500 module. Data were collected and analyzed using TA Instruments Thermal Advantage for Q Series™ software. A sample weighing about 1-5 mg was placed in an aluminum pan on a platinum cradle and scanned from ambient temperature to 300° C. with a linear heating rate of 10° C./min. The balance and furnace chambers were purged with nitrogen during use. Representative TGA traces for samples of a crystalline hydrochloride salt and of a crystalline hydrate of a hydrochloride salt of compound I are also shown in FIGS. 2 and 5, respectively.

Data set [2] in a line: Solid state stability assessment. Particulars: for change in DSC, TGA, PXRD results after storage: hydrochloride. An excerpt: At specific intervals, the contents of a representative vial was removed and analyzed by DSC, TGA, PXRD, and by HPLC for chemical purity.
Data set [3] in a line: Dynamic moisture sorption (DMS) assessment. As to conditions: for sorption/desorption profile: about 2% to about 90% RH, room temperature. On the procedure: Dynamic moisture sorption (DMS) assessment was performed at 25° C. using a VTI atmospheric microbalance, SGA-100 system (VTI Corp., Hialeah, Fla. 33016). A sample size of approximately 5-10 mg was used and the humidity was set at the ambient value at the start of the analysis. A typical DMS analysis consisted of three scans: ambient to 2% relative humidity (RH), 2% RH to 90% RH, 90% RH to 5% RH at a scan rate of 5% RH/step. The mass was measured every two minutes and the RH was changed to the next value (±5% RH) when the mass of the sample was stable to within 0.02% for 5 consecutive points. Representative DMS traces for samples of a crystalline hydrochloride salt and of a crystalline hydrate of a hydrochloride salt of compound I are shown in FIGS. 3 and 6, respectively.

The mark [4] stands for this setting: comparison of DSC and TGA traces.
Where [5] appears, read: 24 weeks at 40° C. and 75% relative humidity.

The record followed here is patent US9126994B2, “Crystalline form of a quinolinone-carboxamide compound” (Theravance Biopharma R&D IP, LLC, priority 2005, dated 2015).

Turning to `CC(C)n1c(=O)c(C(=O)N[C@H]2C[C@H]3CC[C@@H](C2)N3C[C@@H](O)CN(C)S(C)(=O)=O)cc2ccccc21.Cl` [crystalline hydrochloride salt, 1-isopropyl-2-oxo-1,2-dihydroquinoline-3-carboxylic acid {(1S,3R,5R)-8-[(R)-2-hydroxy-3-(methanesulfonyl-methyl-amino)propyl]-8-azabicyclo[3.2.1]oct-3-yl}amide hydrochloride], in data set [1], the “temperature up to which thermally stable” value is “greater than 200 °C”. Also, in data set [1] (TGA / DSC trace, 10° C./min), the “temperature below which no significant thermal event” value is “about 225 °C”. Also, in data set [1] (setting [4]), the “decomposition (degradation) temperature” value is “above 230 °C”. Also, in data set [2] (setting [5]), the “chemical degradation by HPLC after storage” value is “no chemical degradation” and the “change in DSC, TGA, PXRD results after storage” value is given as “no detectable changes”. Further, the “change in DSC, TGA, PXRD results after storage” value in data set [2] (24 weeks at 40° C. and 75% relative humidity, listed as hydrochloride salt) is recorded as “no detectable change”. For the same molecule, the “chemical purity of the stored sample (HPLC)” value in data set [2] (after 24 weeks of storage, open glass vials, 40° C. and 75% RH) came to 99.6%. For the same molecule, the “weight change (hygroscopicity)” value in data set [3] (2% to 90% relative humidity, room temperature (25° C.)) is on record as “less than 0.2%”. In addition, in data set [3], the sorption/desorption profile result was “reversible”. Besides, in data set [3] (exposed to up to 90% relative humidity at room temperature), the deliquescence entry is given as “neither the crystalline hydrochloride salt of the invention nor the hydrate thereof is deliquescent”.

For the molecule `CC(C)n1c(=O)c(C(=O)N[C@H]2C[C@H]3CC[C@@H](C2)N3C[C@@H](O)CN(C)S(C)(=O)=O)cc2ccccc21.Cl.O` [crystalline hydrate, crystalline hydrate of hydrochloride salt of 1-isopropyl-2-oxo-1,2-dihydroquinoline-3-carboxylic acid {(1S,3R,5R)-8-[(R)-2-hydroxy-3-(methanesulfonyl-methyl-amino)propyl]-8-aza-bicyclo[3.2.1]oct-3-yl}amide], the “decomposition (degradation) temperature” value in data set [1] (setting [4]) was “above 250 °C”. Moreover, the “decomposition at the melt transition” value in data set [1] (comparison of DSC and TGA traces, melt about 225° C. to about 250° C.) is listed as “not significant”. Moreover, the weight gain entry in data set [3] (40% RH to 75% RH) is given as “less than 0.25%”. Besides, the sorption/desorption profile entry in data set [3] is listed as “reversible”. Moreover, in data set [3] (dried from ambient to 2% RH, regained from 2% RH to 40% RH), the “weight loss on drying” value is around 2.3%.
